Measurements reported in patent US11053234B2 (GlaxoSmithKline Intellectual Property Development Limited, priority 2016, dated 2021).
Structures can show the parent of a compound that is named as a salt.

Target: T1, haematopoietic prostaglandin D synthase (H-PGDS) (Homo sapiens, UniProt O60760)
T1 construct: Full length human H-PGDS cDNA (Invitrogen Ultimate ORF 10H13026) was amplified by PCR; 6-His (N); TEV protease cleavage site (N); made in house; host or cells: E. coli BL21 (DE3*), vector pET22b+
T1 sequence (O60760 whole entry): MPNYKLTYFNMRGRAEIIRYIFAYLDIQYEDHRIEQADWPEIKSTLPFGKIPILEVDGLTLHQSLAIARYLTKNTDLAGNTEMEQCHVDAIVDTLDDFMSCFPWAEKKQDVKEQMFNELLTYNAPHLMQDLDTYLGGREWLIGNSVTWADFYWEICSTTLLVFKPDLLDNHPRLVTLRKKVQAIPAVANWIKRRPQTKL
Experiment: H-PGDS RapidFire high throughput mass spectrometry assay (conversion of PGH2 to PGD2)
Format: biochemical
Settings: 10 nM H-PGDS, PGH2 formed in situ by COX-2 from arachidonic acid; read-out: Potency Range (mean pIC50) (converted)
Protocol: H-PGDS RapidFire™ High Throughput Mass Spectrometry Assay
The H-PGDS RapidFire™ mass spectrometric assay monitors conversion of prostaglandin H2 (PGH2) to prostaglandin D2 (PGD2) by haematopoietic prostaglandin D synthase (H-PGDS). In the assay format described here, the substrate (PGH2) is formed in situ by the action of cyclooxygenase-2 on arachidonic acid. This first step is set up to be fast, and generates a burst of PGH2 at ˜10 μM. The PGH2 is then further converted to PGD2 by the H-PGDS enzyme. […] Plates are then read on the RapidFire™ high throughput solid phase extraction system (Agilent) which incorporates a solid phase extraction step coupled to a triple quadrupole mass spectrometer (AB SCIEX). Relative levels of PGD2 and PGF2α, which acts as a surrogate for substrate, are measured and a percent conversion calculated.
Expression and Purification of H-PGDS Protein
Full length human H-PGDS cDNA (Invitrogen Ultimate ORF 10H13026) was amplified by PCR with the addition of a 5′ 6-His tag and TEV protease cleavage site. The PCR product was digested with Ndel and Xhol and ligated into pET22b+ (Merck Novagen®). Expression was carried out in E. coli strain BL21 (DE3*) using auto-induction Overnight Express™ Instant TB medium (Merck Novagen®) supplemented with 1% glycerol. The culture was first grown at 37° C. and the temperature was reduced to 25° C. when OD600 reached 2.0. Cells were harvested by centrifugation after a further 18 hr. 10 g of E. coli cell pellet was suspended to a total volume of 80 mL in lysis buffer (20 mM Tris-Cl pH 7.5, 300 mM NaCl, 20 mM imidazole, 5 mM β-mercaptoethanol, 10% glycerol). 1 mg/mL protease inhibitors (Protease Inhibitor Cocktail Set III, Merck Calbiochem®) and 1 mg/mL lysozyme were added to the cell suspension. The suspension was then sonicated for 5 min (UltraSonic Processor VCX 750, Cole-Parmer Instrument Co.) with a micro probe (50% amplitude, 10 sec on/off) and then centrifuged at 100,000 g for 90 min (at 4° C.). The supernatant was loaded onto a Ni-NTA HiTrap column (5 mL, GE Healthcare, pre-equilibrated in lysis buffer). The column was washed with 10 column volumes of lysis buffer and eluted with lysis buffer containing 500 mM imidazole. The pooled protein peak fractions were concentrated using a 10 kDa centrifugal filter at 3500 g and 4° C. (Amicon Ultra-15 centrifugal filter unit with Ultracel-10 membrane from Millipore). Further purification of the concentrated protein was carried out using gel filtration chromatography on a HiLoad 26/600 Superdex 75 preparative grade column (GE Healthcare Life Sciences) using 50 mM Tris pH 7.5, 50 mM NaCl, 1 mM dithiothreitol, 1 mM MgCl2. Fractions containing the protein were pooled, concentrated as described above, and stored at −80° C.
Expression and Purification of Cyclooxygenase-2 (COX-2) Protein
The full length human COX-2 gene (accession number L15326) was amplified by PCR to generate an EcoRI-HindIII fragment containing an in-frame FLAG tag. This was subcloned into pFastBac 1 (Invitrogen). The COX2 FLAG plasmid was recombined into the baculovirus genome according to the BAC-to-BAC protocol described by Invitrogen. Transfection into Spodoptera frugiperda (Sf9) insect cells was performed using Cellfectin (Invitrogen), according to the manufacturer's protocol. […] Cells were harvested using a continuous feed centrifuge run at 2500 g at a rate of approximately 2 L/min with cooling. The resultant cell slurry was re-centrifuged in pots (2500 g, 20 min, 4° C.) and the cell paste was stored at −80° C. […] The suspension was sonicated in 500 mL batches for 8×5 seconds at 10 u amplitude with the medium tip of an MSE probe sonicator and subsequently incubated at 4° C. for 90 min with gentle stirring. The lysate was centrifuged at 12000 rpm for 45 min at 4° C. in a Sorvall SLA1500 rotor. The supernatant (1400 mL) was added to 420 mL of 20 mM Tris-Cl pH 7.4, 150 mM NaCl, 0.1 mM EDTA to reduce the concentration of n-octyl-6-D-glucopyranoside to 1% w/v.

SMILES: CC(C)(O)[C@H]1CC[C@H](NC(=O)[C@H]2C[C@H](Oc3cc(Cl)ccc3Cl)C2)CC1 [Example 257, (trans)-3-(2,5-Dichlorophenoxy)-N-((trans)-4-(2-hydroxypropan-2-yl)cyclohexyl)cyclobutanecarboxamide]
- IC50: 100 to 1000 nM

SMILES: CS(=O)(=O)N1CCC(NC(=O)[C@H]2C[C@H](Oc3cccc4cccnc34)C2)CC1 [Example 219, (trans)-N-(1-(Methylsulfonyl)piperidin-4-yl)-3-(quinolin-8-yloxy)cyclobutanecarboxamide]
- IC50: 100 to 1000 nM

SMILES: CN(C)c1nccc(N2CC(NC(=O)[C@H]3C[C@H](Oc4cccc5scnc45)C3)C2)n1 [Example 76, (trans)-3-(Benzo[d]thiazol-4-yloxy)-N-(1-(2-(dimethylamino)pyrimidin-4-yl)azetidin-3-yl)cyclobutanecarboxamide]
- IC50: 100 to 1000 nM

SMILES: Cc1nnc(NC(=O)[C@H]2C[C@H](Oc3cccc4scnc34)C2)o1 [Example 79, (trans)-3-(Benzo[d]thiazol-4-yloxy)-N-(5-methyl-1,3,4-oxadiazol-2-yl)cyclobutanecarboxamide]
- IC50: 100 to 1000 nM

SMILES: O=C(N[C@H]1CC[C@H](N[C@@H](CO)C(F)(F)F)CC1)[C@H]1C[C@H](Oc2cc(F)ccc2OC(F)F)C1 [Example 20, (trans)-3-(2-(Difluoromethoxy)-5-fluorophenoxy)-N-((trans)-4-(((S)-1,1,1-trifluoro-3-hydroxypropan-2-yl)amino)cyclohexyl)cyclobutanecarboxamide]
- IC50: 10 to 79.4 nM

SMILES: CC(C)(O)Cc1csc(NC(=O)[C@H]2C[C@H](Oc3cccc4cccnc34)C2)n1 [Example 209, (trans)-N-(4-(2-Hydroxy-2-methylpropyl)thiazol-2-yl)-3-(quinolin-8-yloxy)cyclobutanecarboxamide trifluoroacetic acid salt]
- IC50: 10 to 79.4 nM

SMILES: O=C(NC1CN(c2cnccn2)C1)[C@H]1C[C@H](Oc2cc(F)cc3scnc23)C1 [Example 235, (trans)-3-((6-Fluorobenzo[d]thiazol-4-yl)oxy)-N-(1-(pyrazin-2-yl)azetidin-3-yl)cyclobutanecarboxamide]
- IC50: 10 to 79.4 nM

SMILES: CC(C)(O)C12C3C4C1C1C2C3C41NC(=O)[C@H]1C[C@H](Oc2cccc3scnc23)C1 (stereo partly drawn) [Example 320, (trans)-3-(Benzo[d]thiazol-4-yloxy)-N-(4-(2-hydroxypropan-2-yl)cuban-1-yl)cyclobutane-1-carboxamide]
- IC50: 10 to 79.4 nM

SMILES: COc1ccc(F)cc1O[C@H]1C[C@H](C(=O)Nc2nc(C(=O)N(C)C)co2)C1 [Example 158, 2-((trans)-3-(5-Fluoro-2-methoxyphenoxy)cyclobutanecarboxamido)-N,N-dimethyloxazole-4-carboxamide]
- IC50: 10 to 79.4 nM

SMILES: O=C(Nc1nccs1)[C@H]1C[C@H](Oc2cccc3cc(F)cnc23)C1 [Example 281, (trans)-3-((3-Fluoroquinolin-8-yl)oxy)-N-(thiazol-2-yl)cyclobutanecarboxamide]
- IC50: 10 to 79.4 nM

SMILES: C[C@]1(O)C[C@@H](NC(=O)[C@H]2C[C@H](Oc3cc(F)cc4scnc34)C2)C1 [Example 131, (trans)-3-((6-Fluorobenzo[d]thiazol-4-yl)oxy)-N-((cis)-3-hydroxy-3-methylcyclobutyl)cyclobutanecarboxamide]
- IC50: 100 to 1000 nM

SMILES: CS(=O)(=O)c1ccc(NC(=O)[C@H]2C[C@H](Oc3cccc4scnc34)C2)cc1 [Example 242, (trans)-3-(Benzo[d]thiazol-4-yloxy)-N-(4-(methylsulfonyl)phenyl)cyclobutanecarboxamide]
- IC50: 10 to 79.4 nM

SMILES: CC(C)(O)[C@H]1CC[C@H](NC(=O)[C@H]2C[C@H](Oc3cccc(Br)c3)C2)CC1 [Example 228, (trans)-3-(3-Bromophenoxy)-N-((trans)-4-(2-hydroxypropan-2-yl)cyclohexyl)cyclobutanecarboxamide]
- IC50: 100 to 1000 nM

SMILES: CC(C)(O)[C@H]1CC[C@H](NC(=O)N2CC(Oc3csc4cccnc34)C2)CC1 [Example 226, N-((trans)-4-(2-Hydroxypropan-2-yl)cyclohexyl)-3-(thieno[3,2-b]pyridin-3-yloxy)azetidine-1-carboxamide]
- IC50: 10 to 79.4 nM

SMILES: O=C(Nc1nccs1)[C@H]1C[C@H](Nc2cccc3cccnc23)C1 [Example 221, (trans)-3-(Quinolin-8-ylamino)-N-(thiazol-2-yl)cyclobutanecarboxamide]
- IC50: 100 to 1000 nM

SMILES: N#Cc1ccnc(N2CC(NC(=O)N3CC(Oc4cccc5scnc45)C3)C2)c1 [Example 52, 3-(Benzo[d]thiazol-4-yloxy)-N-(1-(4-cyanopyridin-2-yl)azetidin-3-yl)azetidine-1-carboxamide]
- IC50: 10 to 79.4 nM

SMILES: O=C(Nc1nc(C2CC2)ns1)N1CC(Oc2cccc3scnc23)C1 [Example 338, 3-(Benzo[d]thiazol-4-yloxy)-N-(3-cyclopropyl-1,2,4-thiadiazol-5-yl)azetidine-1-carboxamide]
- IC50: < 10 nM

SMILES: NC(=O)c1csc(NC(=O)[C@H]2C[C@H](Oc3cccc4cccnc34)C2)n1 [Example 189, 2-((trans)-3-(Quinolin-8-yloxy)cyclobutanecarboxamido)thiazole-4-carboxamide, trifluoroacetic acid salt]
- IC50: 10 to 79.4 nM

SMILES: O=C(NC1CN(c2ncccn2)C1)[C@H]1C[C@H](Oc2cc(F)cc3scnc23)C1 [Example 133, (trans)-3-((6-Fluorobenzo[d]thiazol-4-yl)oxy)-N-(1-(pyrimidin-2-yl)azetidin-3-yl)cyclobutanecarboxamide]
- IC50: 10 to 79.4 nM

SMILES: CC(C)(O)[C@H]1C[C@H](NC(=O)[C@H]2C[C@H](Oc3cc(F)cc4cccnc34)C2)C1 [Example 293, (trans)-3-((6-Fluoroquinolin-8-yl)oxy)-N-((trans)-3-(2-hydroxypropan-2-yl)cyclobutyl)cyclobutanecarboxamide]
- IC50: 100 to 1000 nM

SMILES: CC1(NC(=O)N2CC(Oc3cccc4scnc34)C2)CN(c2ncccn2)C1 [Example 251]
- IC50: 100 to 1000 nM

SMILES: CC(C)(O)c1cnc(NC(=O)[C@H]2C[C@H](Oc3cccc4cccnc34)C2)s1 [Example 204, (trans)-N-(5-(2-Hydroxypropan-2-yl)thiazol-2-yl)-3-(quinolin-8-yloxy)cyclobutanecarboxamide]
- IC50: 10 to 79.4 nM

SMILES: O=C(Nc1cccc(N2CCOCC2)c1)[C@H]1C[C@H](Oc2cccc3scnc23)C1 [Example 248, (trans)-3-(Benzo[d]thiazol-4-yloxy)-N-(3-morpholinophenyl)cyclobutanecarboxamide]
- IC50: 10 to 79.4 nM

SMILES: CC(C)(O)[C@H]1CC[C@H](NC(=S)N2CC(Oc3cccc4scnc34)C2)CC1 [Example 95, 3-(Benzo[d]thiazol-4-yloxy)-N-((trans)-4-(2-hydroxypropan-2-yl)cyclohexyl) azetidine-1-carbothioamide]
- IC50: 10 to 79.4 nM

SMILES: O=C(NC1CN(c2ncccn2)C1)[C@H]1C[C@H](Oc2cccc3scnc23)C1 [Example 80, (trans)-3-(Benzo[d]thiazol-4-yloxy)-N-(1-(pyrimidin-2-yl)azetidin-3-yl)cyclobutanecarboxamide]
- IC50: 10 to 79.4 nM

SMILES: CC(C)(O)[C@H]1CC[C@H](NC(=O)[C@H]2C[C@H](Oc3cc(F)ccc3Cl)C2)CC1 [Example 230, (trans)-3-(2-Chloro-5-fluorophenoxy)-N-((trans)-4-(2-hydroxypropan-2-yl)cyclohexyl)cyclobutanecarboxamide]
- IC50: 100 to 1000 nM
